Source: ChEMBL document CHEMBL1135615

Tests used:
[1] = Ratio of kinact to that of KI.
[2] = molecular target: 4-aminobutyrate aminotransferase, mitochondrial (Homo sapiens) (UniProt P80404); experiment: Time dependent inactivation of Gamma-amino-N-butyrate transaminase; conditions: Cavia porcellus
Sequence of 4-aminobutyrate aminotransferase, mitochondrial (Homo sapiens) (P80404 whole entry): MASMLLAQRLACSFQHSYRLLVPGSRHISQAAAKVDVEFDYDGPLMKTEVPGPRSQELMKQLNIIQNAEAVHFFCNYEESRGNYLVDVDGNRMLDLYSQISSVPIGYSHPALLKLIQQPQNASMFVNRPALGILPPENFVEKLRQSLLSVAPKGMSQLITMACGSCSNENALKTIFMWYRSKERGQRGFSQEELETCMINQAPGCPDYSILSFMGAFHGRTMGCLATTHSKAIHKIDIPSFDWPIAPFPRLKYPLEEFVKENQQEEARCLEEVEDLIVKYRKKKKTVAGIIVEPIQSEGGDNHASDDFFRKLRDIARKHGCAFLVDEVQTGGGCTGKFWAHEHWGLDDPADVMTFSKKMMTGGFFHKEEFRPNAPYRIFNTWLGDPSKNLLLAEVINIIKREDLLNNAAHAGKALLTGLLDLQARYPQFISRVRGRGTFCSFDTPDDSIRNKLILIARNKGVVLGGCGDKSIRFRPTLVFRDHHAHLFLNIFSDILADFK

Row | Compound | Ratio [1] | K inact [2]
1 | N[C@@H]1C=CCC[C@@H]1C(=O)O | 0.0024 | 0.03 min⁻¹
2 | N[C@@H]1C=CC[C@H](C(=O)O)C1 | 0.0042 | 0.01 min⁻¹
